Data published in EP0000693A1, “Aminophenoxymethyl-2-morpholine derivatives, the preparation thereof and pharmaceuticals containing them” (Dr. Karl Thomae GmbH, priority 1977, dated 1979).
Where a name gives a salt, the structure may show the parent alone. Read-outs that look alike come from different tables or passages of the source.

What was measured:
[1] = system: Muskelrelax. + Sedierung Maus; assay: Muscle relaxation and sedation (Versuch 3); type: in vivo; conditions: mouse; method text not readable (image)
[2] = system: durch Reserpin hervorgerufene Hypothermie bei Mäusen; assay: Antidepressant effect: antagonism of reserpine-induced hypothermia (Versuch 1); type: in vivo, Maus; conditions: 40 mg/kg p.o., 17 h after 3 mg/kg Reserpin s.c.; maximal re-rise of body temperature versus controls, measured 1 - 4 h after dosing; * = significant versus controls, p ≤ 0,05
Description: (§1) Beispielsweise wurden die Verbindungen • A = 2-(2-Amino-3,5-dibrom-phenoxy-methylen)-morpholin-hydrochlorid, • B = 2-(4-Amino-3,5-dibrom-phenoxy-methylen)-4-isopropyl-morpholin- hydrochlorid, • C = 2-(4-Amino-3,5-dibrom-phenoxy-methylen)-morpholin-hydrochlorid, • D = 2-(2-Amino-3,5-dibrom-phenoxy-methylen)-4-tert.butyl-morpholin-hydrochlorid und • E = 2-(2-Amino-5-brom-4-chlor-phenoxy-methylen)-4-isopronyl- morpholin-dihydrochlorid ,im Vergleich zu • F = 2-(2-Äthoxy-phenoxy-methylen)-morpholin-hydrochlorid auf ihre biologischen Wirkungen wie folgt untersucht: • 1. […] Bei 20 - 26 g schweren männlichen Mäusen wurde durch 3 mg/kg Reserpin s.c. Hypothermie erzeugt. 17 Stunden später wurde die Körpertemperatur mittels eines elektrischen Schlundsondenthermometers gemessen. Anschließend wurden Gruppen von 6 - 10 Tieren die zu prüfenden Substanzen in der Dosis von 40 mg/kg p.o. verabreicht. Kontrollgruppen erhielten das Lösungsmittel (Aqua dest.). Die Körpertemperaturen wurden 1 - 4 Stunden nach Substanzverabreichung in stündlichem Abstand gemessen. Zur Auswertung wurden der maximale Wiederanstieg der Körpertemperatur der Substanzgruppe mit den Temperaturen der Kontrolltiergruppen verglichen und die Temperaturunterschiede mit dem MANN-WHITNEY-U-Test auf Signifikanz geprüft. • 2. […] Dazu wurde bei 10 männlichen, 20-26 g schweren Mäusen ein Krampfzustand mit Wechselstrom (50 mA, 50 Hz, 0,2 sec Dauer) über mit physiologischer : Kochsalz-Lösung angefeuchtete, an den Kopf der Tiere gelegte Metallelektroden erzeugt, wobei das Ausbleiben der tonischen Extensorkomponente dieses Krampfes 150 Minuten nach Substanzgabe als antikonvulsive Wirkung gewertet wurde.

[3] = system: maximalen Elektrokrampf bei Mäusen; assay: Anticonvulsant effect: maximal electroshock seizure (Versuch 2); type: in vivo, Maus; conditions: Mus musculus, 2.5 h
Description: as §1

[4] = male mice, 50 mA, 50 Hz, 0,2 sec, absence of tonic extensor component 150 min after dosing, ED50 by LITCHFIELD and WILCOXON, read-out: Versuch 2 Elektrokrampf Maus ED50-Hemmung

`CC(C)N1CCOC(COc2cc(Br)c(N)c(Br)c2)C1` (stereo not drawn) [B, 2-(4-Amino-3,5-dibrom-phenoxy-methylen)-4-isopropyl-morpholin-hydrochlorid] was tested, and the ED50 [1] was 60 mg/kg, the “Versuch 1 Reserpin Maus 40 mg/kg: +°C” value [2] was 8,4* °C and the ED50 [3, 4] was 26 mg/kg.

With `CC(C)(C)N1CCOC(COc2cc(Br)cc(Br)c2N)C1` (stereo not drawn) [D, 2-(2-Amino-3,5-dibrom-phenoxy-methylen)-4-tert.butyl-morpholin-hydrochlorid] the ED50 [1] was > 200 mg/kg, the “Versuch 1 Reserpin Maus 40 mg/kg: +°C” value [2] was 0,6 °C and the ED50 [3, 4] was 150 mg/kg.

In the case of `CCOc1ccccc1OCC1CNCCO1` (stereo not drawn) [F, 2-(2-Äthoxy-phenoxy-methylen)-morpholin-hydrochlorid, reference compound], the ED50 [1] is reported as ~200 mg/kg, the “Versuch 1 Reserpin Maus 40 mg/kg: +°C” value [2] is reported as 9,8* °C and the ED50 ([3]; read-out: Versuch 2 Elektrokrampf Maus ED50-Hemmung mg/kg) is reported as 42 mg/kg.

In the case of `Nc1c(Br)cc(Br)cc1OCC1CNCCO1` (stereo not drawn) [A, 2-(2-Amino-3,5-dibrom-phenoxy-methylen)-morpholin-hydrochlorid], the ED50 [1] is reported as > 200 mg/kg, the “Versuch 1 Reserpin Maus 40 mg/kg: +°C” value [2] is reported as 10,7* °C and the ED50 [3, 4] is reported as 26.5 mg/kg.

`Nc1c(Br)cc(OCC2CNCCO2)cc1Br` (stereo not drawn) [C, 2-(4-Amino-3,5-dibrom-phenoxy-methylen)-morpholin-hydrochlorid] was tested, and the ED50 [1] was 21 mg/kg, the “Versuch 1 Reserpin Maus 40 mg/kg: +°C” value [2] was 7,3* °C and the ED50 [3, 4] was 17.5 mg/kg.

With `CC(C)N1CCOC(COc2cc(Br)c(Cl)cc2N)C1` (stereo not drawn) [E, 2-(2-Amino-5-brom-4-chlor-phenoxy-methylen)-4-isopronyl-morpholin-dihydrochlorid] the ED50 [1] was > 200 mg/kg, the “Versuch 1 Reserpin Maus 40 mg/kg: +°C” value [2] was 1,0 °C and the ED50 [3, 4] was 200 mg/kg.
